Broadly, the IC50 is the concentration needed to halve the response being measured.

This experiment deals with T1, human recombinant LPA2 expressed in CHO cells (Homo sapiens, UniProt Q9HBW0).
T1 construct: expressed in transfected cells; host or cells: CHO cells (CHO-hLPA2 cell line)
Put plainly: FLIPR calcium mobilization assay, LPA2 antagonism in CHO-hLPA2 cells. It counts as cell-based. Conditions: CHO-hLPA2 cells, inhibition of LPA EC80 Ca2+ response, 30 min pre-incubation; read-out: LPA2 IC50. Here is the method:
The effectiveness of compounds of the present invention as LPA2 antagonist can be determined at the human recombinant LPA2 expressed in CHO cells, using a FLIPR assay in 384 well format.
CHO-hLPA2 cell lines are cultured in a humidified incubator at 5% C02 in DMEM/F-12 (1:1) MIXTURE with 2 mM Glutamax, supplemented with 10% of Foetal Bovine Serum, 1 mM Sodium Pyruvate, 11 mM Hepes and 1× Penicillin/Streptomycin. CHO hLPA2 cells are seeded into black walled clear-bottom 384-well plates (#781091, Greiner Bio-One GmbH) at a density of 7,500 cells per well in 50 μl culture media and grown overnight in a 37° C. humidified CO2-incubator. Serial dilutions (1:3 or 1:4, 11 points CRC) of compounds are performed in 100% DMSO at 200× the final concentration. The compounds are diluted 1:50 prior to the experiment with Assay Buffer (20 mM HEPES, 145 mM NaCl, 5 mM KCl, 5.5 mM glucose, 1 mM MgCl2 and 2 mM CaCl2, pH 7.4 containing 0.01% Pluronic F-127) to obtain a solution corresponding to […] the final concentration in the assay (4×, 2% DMSO). The final concentration of DMSO in the assay will be 0.5% in each well. Medium is removed by aspiration and cells are then incubated with 30 μl of a loading solution containing 5 μM of the cytoplasmic Ca2+ indicator Cal-520 AM in Assay Buffer containing 2.5 mM probenecid for 30 min at 37° C. incubator (cell loading). The loaded cell plates are transferred into the FLIPR instrument and calcium responses are monitored during the on-line addition protocols. For testing of compounds, after the cell loading, 10 μl/well of 4× antagonists' solution was added onto the cells. After 30 min pre-incubation (at 37° C.), 10 μl/well of 5× concentrated LPA EC80 was added and Ca2+ mobilization responses was followed during the on-line addition protocol. Intracellular peak fluorescence values subtracted by baseline fluorescence are exported and analysed to determine IC50 values, respectively. The calcium response is expressed as percentage of the maximal inhibition of the EC80 agonist response.
The raw data (peak height expressed as relative fluorescence units) are normalized and transformed into “percent of inhibition”. Curve fitting and pIC50 (−LogIC50) estimations are carried out using a four-parameter logistic model using XLfit Software.

T1 sequence (Q9HBW0 whole entry): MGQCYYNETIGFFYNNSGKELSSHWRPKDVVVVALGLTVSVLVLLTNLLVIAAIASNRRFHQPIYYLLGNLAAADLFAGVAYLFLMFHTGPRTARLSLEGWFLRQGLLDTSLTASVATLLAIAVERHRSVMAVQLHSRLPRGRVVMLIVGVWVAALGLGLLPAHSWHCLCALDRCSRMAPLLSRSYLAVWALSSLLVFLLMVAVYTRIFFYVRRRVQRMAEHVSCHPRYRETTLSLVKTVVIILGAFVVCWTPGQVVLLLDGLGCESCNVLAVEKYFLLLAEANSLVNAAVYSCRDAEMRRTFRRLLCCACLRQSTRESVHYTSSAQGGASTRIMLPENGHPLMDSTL

For the molecule `Cc1cc(-c2ccc(S(=O)(=O)N3CCN(C[C@H](C)Nc4ncnc5c(-c6sc(C)nc6C)cccc45)CC3)s2)on1` [Example 7, 8-(2,4-dimethyl-1,3-thiazol-5-yl)-N-[(2S)-1-(4-{[5-(3-methyl-1,2-oxazol-5-yl)thiophen-2-yl]sulfonyl}piperazin-1-yl)propan-2-yl]quinazolin-4-amine], the IC50 is under 10 nM.

Regarding `Cc1cc(-c2ccc(S(=O)(=O)N3CCN(C[C@H](C)Nc4ncnc5c(-c6cccc(CN7CCCC7)c6)cccc45)CC3)s2)on1` [Example 16, N-[(2S)-1-(4-{[5-(3-methyl-1,2-oxazol-5-yl)thiophen-2-yl]sulfonyl}piperazin-1-yl)propan-2-yl]-8-{3-[(pyrrolidin-1-yl)methyl]phenyl}quinazolin-4-amine], the concentration for half-maximal inhibition (IC50) was under 10 nM.

Consider `COC(=O)Nc1nc(C)c(S(=O)(=O)N2CCN(C[C@H](C)Nc3ncnc4c(-c5ccc(N6CCN(C)CC6)cc5)cccc34)CC2)s1` [Example 36, methyl N-[4-methyl-5-({4-[(2S)-2-({8-[4-(4-methylpiperazin-1-yl)phenyl]quinazolin-4-yl}amino)propyl]piperazin-1-yl}sulfonyl)-1,3-thiazol-2-yl]carbamate], for which the IC50 was under 10 nM.

With `Cc1nc2ccc(S(=O)(=O)N3CCN(C[C@H](C)Nc4ncnc5c(-c6cccnc6)cccc45)CC3)cc2s1` [Example 83, N-[(2S)-1-{4-[(2-methyl-1,3-benzothiazol-6-yl)sulfonyl]piperazin-1-yl}propan-2-yl]-8-(pyridin-3-yl)quinazolin-4-amine], the IC50 was under 10 nM.

Take `C[C@@H](CN1CCN(S(=O)(=O)c2ccc3[nH]c(=O)[nH]c(=O)c3c2)CC1)Nc1ncnc2c(-c3cccc(CN(C)C)c3)cccc12` [Example 77, 6-({4-[(2S)-2-[(8-{3-[(dimethylamino)methyl]phenyl}quinazolin-4-yl)amino]propyl]piperazin-1-yl}sulfonyl)-1,2,3,4-tetrahydroquinazoline-2,4-dione]: the IC50 was under 10 nM.

On to `COC(=O)Nc1nc(C)c(S(=O)(=O)N2CCN(C[C@H](C)Nc3ncnc4c(-c5c(C)nn(CCN(C)C)c5C)cccc34)CC2)s1` [Example 101, methyl N-[5-({4-[(2S)-2-[(8-{1-[2-(dimethylamino)ethyl]-3,5-dimethyl-1H-pyrazol-4-yl}quinazolin-4-yl)amino]propyl]piperazin-1-yl}sulfonyl)-4-methyl-1,3-thiazol-2-yl]carbamate], for which the IC50 is under 10 nM.

In the case of `COC(=O)Nc1nc(C)c(S(=O)(=O)N2CCN(C[C@H](C)Nc3ncnc4c(-c5cncnc5)cccc34)CC2)s1` [Example 40, methyl N-[4-methyl-5-({4-[(2S)-2-{[8-(pyrimidin-5-yl)quinazolin-4-yl]amino}propyl]piperazin-1-yl}sulfonyl)-1,3-thiazol-2-yl]carbamate], the IC50 was under 10 nM.

Take `COC(=O)Nc1nc(C)c(S(=O)(=O)N2CCN(C[C@H](C)Nc3ncnc4c(-c5ccc(CN(C)C)nc5)cccc34)CC2)s1` [Example 60, methyl N-[5-({4-[(2S)-2-[(8-{6-[(dimethylamino)methyl]pyridin-3-yl}quinazolin-4-yl)amino]propyl]piperazin-1-yl}sulfonyl)-4-methyl-1,3-thiazol-2-yl]carbamate]: the 50% inhibitory concentration (IC50) was under 10 nM.

On to `Cc1cc(C(=O)Nc2nc(C)c(S(=O)(=O)N3CCN(C[C@H](C)Nc4ncnc5c(-c6cccnc6)cccc45)CC3)s2)no1` [Example 33, 5-methyl-N-[4-methyl-5-({4-[(2S)-2-{[8-(pyridin-3-yl)quinazolin-4-yl]amino}propyl]piperazin-1-yl}sulfonyl)-1,3-thiazol-2-yl]-1,2-oxazole-3-carboxamide], for which the IC50 is under 10 nM.

With `COC(=O)Nc1nc(C)c(S(=O)(=O)N2CCN(C[C@H](C)Nc3ncnc4c(-c5cn(CCN(C)C)nc5C(F)(F)F)cccc34)CC2)s1` [Example 102, methyl N-[5-({4-[(2S)-2-[(8-{1-[2-(dimethylamino)ethyl]-3-(trifluoromethyl)-1H-pyrazol-4-yl}quinazolin-4-yl)amino]propyl]piperazin-1-yl}sulfonyl)-4-methyl-1,3-thiazol-2-yl]carbamate], the IC50 was under 10 nM.

As for `COC(=O)Nc1ncc(S(=O)(=O)N2CCN(C[C@H](C)Nc3ncnc4c(-c5cccnc5)cccc34)CC2)s1` [Example 47, methyl N-[5-({4-[(2S)-2-{[8-(pyridin-3-yl)quinazolin-4-yl]amino}propyl]piperazin-1-yl}sulfonyl)-1,3-thiazol-2-yl]carbamate], the concentration for half-maximal inhibition (IC50) is under 10 nM.

For the molecule `C[C@@H](CN1CCN(S(=O)(=O)c2ccc(Cl)c(Cl)c2)CC1)Nc1ncnc2c(-c3cccnc3)cccc12` [Example 31, N-[(2S)-1-[4-(3,4-dichlorobenzenesulfonyl)piperazin-1-yl]propan-2-yl]-8-(pyridin-3-yl)quinazolin-4-amine], the half-maximal inhibitory concentration (IC50) was under 10 nM.

For the molecule `CC(=O)Nc1nc(C)c(S(=O)(=O)N2CCN(C[C@H](C)Nc3ncnc4c(-c5cccnc5)cccc34)CC2)s1` [Example 32, N-[4-methyl-5-({4-[(2S)-2-{[8-(pyridin-3-yl)quinazolin-4-yl]amino}propyl]piperazin-1-yl}sulfonyl)-1,3-thiazol-2-yl]acetamide], the half-inhibitory concentration (IC50) is under 10 nM.

As for `CC(=O)N1CCc2cc(S(=O)(=O)N3CCN(C[C@H](C)Nc4ncnc5c(-c6cccc(CN(C)C)c6)cccc45)CC3)ccc21` [Example 54, 1-[5-({4-[(2S)-2-[(8-{3-[(dimethylamino)methyl]phenyl}quinazolin-4-yl)amino]propyl]piperazin-1-yl}sulfonyl)-2,3-dihydro-1H-indol-1-yl]ethan-1-one], the half-maximal inhibitory concentration (IC50) is under 10 nM.

In the case of `C[C@@H](CN1CCN(S(=O)(=O)c2ccc3c(c2)CC(=O)N3)CC1)Nc1ncnc2c(-c3cccc(CN(C)C)c3)cccc12` [Example 76, 5-({4-[(2S)-2-[(8-{3-[(dimethylamino)methyl]phenyl}quinazolin-4-yl)amino]propyl]piperazin-1-yl}sulfonyl)-2,3-dihydro-1H-indol-2-one], the IC50 is under 10 nM.

On to `COC(=O)Nc1nc(C)c(S(=O)(=O)N2CCN(C[C@H](C)Nc3ncnc4c(-c5ccccn5)cccc34)CC2)s1` [Example 29, methyl N-[4-methyl-5-({4-[(2S)-2-{[8-(pyridin-2-yl)quinazolin-4-yl]amino}propyl]piperazin-1-yl}sulfonyl)-1,3-thiazol-2-yl]carbamate], for which the half-inhibitory concentration (IC50) was under 10 nM.

With `CC(=O)Nc1cc(F)c(S(=O)(=O)N2CCN(C[C@H](C)Nc3ncnc4c(-c5cccnc5)cccc34)CC2)cc1C` [Example 42, N-[5-fluoro-2-methyl-4-({4-[(2S)-2-{[8-(pyridin-3-yl)quinazolin-4-yl]amino}propyl]piperazin-1-yl}sulfonyl)phenyl]acetamide], the IC50 was 10 to 100 nM.

Regarding `COC(=O)Nc1ncc(S(=O)(=O)N2CCN(C[C@H](C)Nc3ncnc4c(-c5cccc(CN(C)C)c5)cccc34)CC2)s1` [Example 75, methyl N-[5-({4-[(2S)-2-[(8-{3-[(dimethylamino)methyl]phenyl}quinazolin-4-yl)amino]propyl]piperazin-1-yl}sulfonyl)-1,3-thiazol-2-yl]carbamate], the half-inhibitory concentration (IC50) was under 10 nM.

As for `C[C@@H](CN1CCN(S(=O)(=O)c2ccc3c(c2)sc(=O)n3C)CC1)Nc1ncnc2c(-c3cccnc3)cccc12` [Example 94, 3-methyl-6-({4-[(2S)-2-{[8-(pyridin-3-yl)quinazolin-4-yl]amino}propyl]piperazin-1-yl}sulfonyl)-2,3-dihydro-1,3-benzothiazol-2-one], the half-inhibitory concentration (IC50) lay within 10 to 100 nM.

`C[C@@H](CN1CCN(S(=O)(=O)c2ccc3[nH]c(=O)sc3c2)CC1)Nc1ncnc2c(-c3ccc(F)c(CN(C)C)c3)cccc12` [Example 97, 6-({4-[(2S)-2-[(8-{3-[(dimethylamino)methyl]-4-fluorophenyl}quinazolin-4-yl)amino]propyl]piperazin-1-yl}sulfonyl)-2,3-dihydro-1,3-benzothiazol-2-one]: the IC50 is under 10 nM.

Take `COC(=O)Nc1nc(C)c(S(=O)(=O)N2CCN(C[C@H](C)Nc3ncnc4c(-c5ccc6c(c5)CNC6)cccc34)CC2)s1` [Example 57, methyl N-[5-({4-[(2S)-2-{[8-(2,3-dihydro-1H-isoindol-5-yl)quinazolin-4-yl]amino}propyl]piperazin-1-yl}sulfonyl)-4-methyl-1,3-thiazol-2-yl]carbamate]: the IC50 was under 10 nM.

These data come from patent US20240190860A1, “8-CYCLO-SUBSTITUTED QUINAZOLINE DERIVATIVES AS LPA RECEPTOR 2 INHIBITORS” (CHIESI FARMACEUTICI S.p.A., priority 2021, published 2024).
